In patent US20240343704A1, “HALO-SUBSTITUTED AMINO PYRIDINE COMPOUNDS AS INHIBITORS OF THE HAEMATOPOIETIC PROGENITOR KINASE 1 (HPK1)” (priority 2021, published 2024):

Target: T1, Recombinant (1-346) HPK1 (h) (Homo sapiens, UniProt Q92918)
T1 construct: Recombinant (1-346) HPK1 (h) is incubated with 8 mM MOPS pH 7.0
T1 sequence (Q92918 1-346): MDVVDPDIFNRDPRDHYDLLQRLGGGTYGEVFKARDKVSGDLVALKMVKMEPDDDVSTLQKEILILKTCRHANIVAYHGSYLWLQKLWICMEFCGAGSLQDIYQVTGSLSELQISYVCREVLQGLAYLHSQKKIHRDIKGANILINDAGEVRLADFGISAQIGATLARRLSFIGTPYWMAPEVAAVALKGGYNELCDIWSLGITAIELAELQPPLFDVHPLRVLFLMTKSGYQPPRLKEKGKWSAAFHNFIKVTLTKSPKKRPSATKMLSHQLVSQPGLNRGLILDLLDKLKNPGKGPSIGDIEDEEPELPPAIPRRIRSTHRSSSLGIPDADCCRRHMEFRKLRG
Test: HPK1 Human STE Kinase Enzymatic Radiometric Assay
Format: biochemical
Conditions: read-out: HPK1 IC50 nM Range*
Description: A stock solution of 10 mM of test compound is prepared in DMSO. The compound plate was prepared by 3-fold and 9-point serial dilutions. […] The reaction is initiated by The addition of the Mg/ATP mix. After incubation for 40 minutes at RT, the reaction is stopped by the addition of phosphoric acid to a concentration of 0.5%.

Row | SMILES | IC50 [nM]
1 | Cc1[nH]c(=O)c2c(F)cc(-c3cc(-c4ccc(C5CCOCC5)c(CN(C)C)c4)c(F)nc3N)cc2c1F [I-535, 6-(2-amino-5-(3-((dimethylamino)methyl)-4-(tetrahydro-2H-pyran-4-yl)phenyl)-6-fluoropyridin-3-yl)-4,8-difluoro-3-methylisoquinolin-1(2H)-one] | 11 to 100
2 | COc1ccc(-c2cc(-c3ccc4c(c3)CCNC4=O)c(N)nc2F)cc1CO [I-536, 6-(2-amino-6-fluoro-5-(3-(hydroxymethyl)-4-methoxyphenyl)pyridin-3-yl)-3,4-dihydroisoquinolin-1(2H)-one] | 11 to 100
3 | COC1CCN(Cc2cc(-c3cc(-c4ccc5c(c4)CCNC5=O)c(N)nc3F)ccc2C2CCOCC2)CC1 [I-540, 6-(2-amino-6-fluoro-5-(3-((4-methoxypiperidin-1-yl)methyl)-4-(tetrahydro-2H-pyran-4-yl)phenyl)pyridin-3-yl)-3,4-dihydroisoquinolin-1(2H)-one] | 11 to 100
4 | COC1CCN(Cc2cc(-c3cc(-c4cc5c(cc4F)C(=O)NCC5)c(N)nc3F)ccc2C2CCOCC2)CC1 [I-541, 6-(2-amino-6-fluoro-5-(3-((4-methoxypiperidin-1-yl)methyl)-4-(tetrahydro-2H-pyran-4-yl)phenyl)pyridin-3-yl)-7-fluoro-3,4-dihydroisoquinolin-1(2H)-one] | 11 to 100
5 | COC1CCN(Cc2cc(-c3cc(-c4ccc5c(c4)CCNC5=O)c(N)nc3F)ccc2N2CCOCC2)C1 (centres unmarked) [I-542, 6-(2-amino-6-fluoro-5-(3-((3-methoxypyrrolidin-1-yl)methyl)-4-morpholinophenyl)pyridin-3-yl)-3,4-dihydroisoquinolin-1(2H)-one] | 11 to 100
6 | Nc1nc(F)c(-c2ccc(N3CCOCC3)c(CN3CCC3)c2)cc1-c1ccc2c(c1)CCNC2=O [I-549, 6-(2-amino-5-(3-(azetidin-1-ylmethyl)-4-morpholinophenyl)-6-fluoropyridin-3-yl)-3,4-dihydroisoquinolin-1(2H)-one] | 11 to 100
7 | Nc1nc(F)c(-c2ccc(N3CCOCC3)c(CN3CCC3)c2)cc1-c1cc2c(cc1F)C(=O)NCC2 [I-550, 6-(2-amino-5-(3-(azetidin-1-ylmethyl)-4-morpholinophenyl)-6-fluoropyridin-3-yl)-7-fluoro-3,4-dihydroisoquinolin-1(2H)-one] | 11 to 100
8 | CCN(C)Cc1cc(-c2cc(-c3cc4c(cc3F)C(=O)NCC4)c(N)nc2F)ccc1C1CCOCC1 [I-552, 6-(2-amino-5-(3-((ethyl(methyl)amino)methyl)-4-(tetrahydro-2H-pyran-4-yl)phenyl)-6-fluoropyridin-3-yl)-7-fluoro-3,4-dihydroisoquinolin-1(2H)-one] | 11 to 100
9 | COCCN(C)Cc1cc(-c2cc(-c3cc4c(cc3F)C(=O)NCC4)c(N)nc2F)ccc1N1CCOCC1 [I-554, 6-(2-amino-6-fluoro-5-(3-(((2-methoxyethyl)(methyl)amino)methyl)-4-morpholinophenyl)pyridin-3-yl)-7-fluoro-3,4-dihydroisoquinolin-1(2H)-one] | 11 to 100
10 | CN(C)Cc1cc(-c2cc(-c3ccc4c(c3)CCNC4=O)c(N)nc2F)ccc1OCC(F)F [I-555, 6-(2-amino-5-(4-(2,2-difluoroethoxy)-3-((dimethylamino)methyl)phenyl)-6-fluoropyridin-3-yl)-3,4-dihydroisoquinolin-1(2H)-one] | 11 to 100
11 | CN(C)Cc1cc(-c2cc(-c3cc4c(cc3F)C(=O)NCC4)c(N)nc2F)ccc1OCC(F)F [I-556, 6-(2-amino-5-(4-(2,2-difluoroethoxy)-3-((dimethylamino)methyl)phenyl)-6-fluoropyridin-3-yl)-7-fluoro-3,4-dihydroisoquinolin-1(2H)-one] | 11 to 100
12 | Nc1nc(F)c(-c2ccc(C3CCOCC3)c(CN3CCCC3)c2)cc1-c1ccc2c(c1)CCNC2=O [I-557, 6-(2-amino-6-fluoro-5-(3-(pyrrolidin-1-ylmethyl)-4-(tetrahydro-2H-pyran-4-yl)phenyl)pyridin-3-yl)-3,4-dihydroisoquinolin-1(2H)-one] | 11 to 100
13 | Nc1nc(F)c(-c2ccc(C3CCOCC3)c(CN3CCCC3)c2)cc1-c1cc2c(cc1F)C(=O)NCC2 [I-558, 6-(2-amino-6-fluoro-5-(3-(pyrrolidin-1-ylmethyl)-4-(tetrahydro-2H-pyran-4-yl)phenyl)pyridin-3-yl)-7-fluoro-3,4-dihydroisoquinolin-1(2H)-one] | 11 to 100
14 | Nc1nc(F)c(-c2ccc(N3CCOCC3)c(CN3CCCCC3)c2)cc1-c1ccc2c(c1)CCNC2=O [I-559, 6-(2-amino-6-fluoro-5-(4-morpholino-3-(piperidin-1-ylmethyl)phenyl)pyridin-3-yl)-3,4-dihydroisoquinolin-1(2H)-one] | 11 to 100
15 | Nc1nc(F)c(-c2ccc(N3CCOCC3)c(CN3CCCCC3)c2)cc1-c1cc2c(cc1F)C(=O)NCC2 [I-560, 6-(2-amino-6-fluoro-5-(4-morpholino-3-(piperidin-1-ylmethyl)phenyl)pyridin-3-yl)-7-fluoro-3,4-dihydroisoquinolin-1(2H)-one] | 11 to 100
16 | CO[C@@H]1CCN(Cc2cc(-c3cc(-c4ccc5c(c4)CCNC5=O)c(N)nc3F)ccc2N2CCOCC2)C1 [I-563, (R)-6-(2-amino-6-fluoro-5-(3-((3-methoxypyrrolidin-1-yl)methyl)-4-morpholinophenyl)pyridin-3-yl)-3,4-dihydroisoquinolin-1(2H)-one] | 11 to 100
17 | CO[C@@H]1CCN(Cc2cc(-c3cc(-c4cc5c(cc4F)C(=O)NCC5)c(N)nc3F)ccc2N2CCOCC2)C1 [I-564, (R)-6-(2-amino-6-fluoro-5-(3-((3-methoxypyrrolidin-1-yl)methyl)-4-morpholinophenyl)pyridin-3-yl)-7-fluoro-3,4-dihydroisoquinolin-1(2H)-one] | 11 to 100

The next lines start with the values.

Row | IC50 [nM] | SMILES
18 | 0.1 to 10 | CN(C)Cc1cc(-c2cc(-c3cc4c(cc3F)C(=O)NCC4)c(N)nc2F)ccc1OCC1CCOCC1 [I-533, 6-(2-amino-5-(3-((dimethylamino)methyl)-4-((tetrahydro-2H-pyran-4-yl)methoxy)phenyl)-6-fluoropyridin-3-yl)-7-fluoro-3,4-dihydroisoquinolin-1(2H)-one]
19 | 11 to 100 | Cc1[nH]c(=O)c2c(F)cc(-c3cc(-c4ccc(N5CCOCC5)c(CN(C)C)c4)c(F)nc3N)cc2c1F [I-534, 6-(2-amino-5-(3-((dimethylamino)methyl)-4-morpholinophenyl)-6-fluoropyridin-3-yl)-4,8-difluoro-3-methylisoquinolin-1(2H)-one]
20 | 0.1 to 10 | COc1c[nH]c(=O)c2ccc(-c3cc(-c4ccc(N5CCN(C(C)C)CC5)cc4)c(F)nc3N)cc12 [I-537]
21 | 0.1 to 10 | Cc1[nH]c(=O)c2ccc(-c3cc(-c4ccc(N5CCN(C(C)C)CC5)cc4)c(F)nc3N)cc2c1Cl [I-538, 6-(2-amino-6-fluoro-5-(4-(4-isopropylpiperazin-1-yl)phenyl)pyridin-3-yl)-4-chloro-3-methylisoquinolin-1(2H)-one]
22 | 0.1 to 10 | CN1CCOC2(C1)CN(c1ccc(-c3cc(-c4cc5c(cc4F)C(=O)NCC5)c(N)nc3F)cc1)C2 [I-539, 6-(2-amino-6-fluoro-5-(4-(8-methyl-5-oxa-2,8-diazaspiro[3.5]nonan-2-yl)phenyl)pyridin-3-yl)-7-fluoro-3,4-dihydroisoquinolin-1(2H)-one]
23 | 0.1 to 10 | Nc1nc(F)c(-c2ccc(N3CCN(CCCC(F)F)CC3)cc2)cc1-c1ccc2c(=O)[nH]cc(F)c2c1 [I-544, 6-(2-amino-5-(4-(4-(4,4-difluorobutyl)piperazin-1-yl)phenyl)-6-fluoropyridin-3-yl)-4-fluoroisoquinolin-1(2H)-one]
24 | 0.1 to 10 | Cc1c[nH]c(=O)c2ccc(-c3cc(-c4ccc(N5CCN(C6CCC6)CC5)cc4)c(F)nc3N)cc12 [I-545, 6-(2-amino-5-(4-(4-cyclobutylpiperazin-1-yl)phenyl)-6-fluoropyridin-3-yl)-4-methylisoquinolin-1(2H)-one]
25 | 0.1 to 10 | Nc1nc(F)c(-c2ccc(N3CCN(C4CCC4)CC3)cc2)cc1-c1ccc2c(=O)[nH]cc(F)c2c1 [I-546, 6-(2-amino-5-(4-(4-cyclobutylpiperazin-1-yl)phenyl)-6-fluoropyridin-3-yl)-4-fluoroisoquinolin-1(2H)-one]
26 | 0.1 to 10 | CC(C)N1CCN(c2ccc(-c3cc(-c4cc5c(F)c[nH]c(=O)c5cc4F)c(N)nc3F)cc2)CC1 [I-547, 6-(2-amino-6-fluoro-5-(4-(4-isopropylpiperazin-1-yl)phenyl)pyridin-3-yl)-4,7-difluoroisoquinolin-1(2H)-one]
27 | 0.1 to 10 | COCCN(C)Cc1cc(-c2cc(-c3ccc4c(c3)CCNC4=O)c(N)nc2F)ccc1N1CCOCC1 [I-553, 6-(2-amino-6-fluoro-5-(3-(((2-methoxyethyl)(methyl)amino)methyl)-4-morpholinophenyl)pyridin-3-yl)-3,4-dihydroisoquinolin-1(2H)-one]
28 | 0.1 to 10 | CN(C)Cc1cc(-c2cc(-c3cc4c(F)c[nH]c(=O)c4cc3F)c(N)nc2F)ccc1N1CCOCC1 [I-561, 6-(2-amino-5-(3-((dimethylamino)methyl)-4-morpholinophenyl)-6-fluoropyridin-3-yl)-4,7-difluoroisoquinolin-1(2H)-one]
29 | 0.1 to 10 | CN(C)Cc1cc(-c2cc(-c3cc4c(F)c[nH]c(=O)c4cc3F)c(N)nc2F)ccc1C1CCOCC1 [I-562, 6-(2-amino-5-(3-((dimethylamino)methyl)-4-(tetrahydro-2H-pyran-4-yl)phenyl)-6-fluoropyridin-3-yl)-4,7-difluoroisoquinolin-1(2H)-one]
